Data taken from US9394311B2, “Triazolo compounds as PDE10 inhibitors” (Hoffmann-La Roche Inc., priority 2012, dated 2016).

biological target: human PDE10A (Homo sapiens (Human), UniProt Q9Y233); experiment: human PDE10A full length Scintillation Proximity Assay (SPA); type: biochemical; conditions: PDE10A full length enzyme, 50 nM cGMP / [3H]-cGMP substrate, 20 minutes at room temperature
In short: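 Full-length human PDE10A with 50 nM cGMP plus 50 nM [3H]-cGMP in 20 mM HEPES pH 7.5, 10 mM MgCl2, 0.05 mg/ml BSA; 20 min at room temperature. Stopped with yttrium silicate SPA beads in zinc sulphate, scintillation counted; IC50 from concentration range.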

Sequence of human PDE10A (Q9Y233 other isoform, or with tags, fused parts or gaps): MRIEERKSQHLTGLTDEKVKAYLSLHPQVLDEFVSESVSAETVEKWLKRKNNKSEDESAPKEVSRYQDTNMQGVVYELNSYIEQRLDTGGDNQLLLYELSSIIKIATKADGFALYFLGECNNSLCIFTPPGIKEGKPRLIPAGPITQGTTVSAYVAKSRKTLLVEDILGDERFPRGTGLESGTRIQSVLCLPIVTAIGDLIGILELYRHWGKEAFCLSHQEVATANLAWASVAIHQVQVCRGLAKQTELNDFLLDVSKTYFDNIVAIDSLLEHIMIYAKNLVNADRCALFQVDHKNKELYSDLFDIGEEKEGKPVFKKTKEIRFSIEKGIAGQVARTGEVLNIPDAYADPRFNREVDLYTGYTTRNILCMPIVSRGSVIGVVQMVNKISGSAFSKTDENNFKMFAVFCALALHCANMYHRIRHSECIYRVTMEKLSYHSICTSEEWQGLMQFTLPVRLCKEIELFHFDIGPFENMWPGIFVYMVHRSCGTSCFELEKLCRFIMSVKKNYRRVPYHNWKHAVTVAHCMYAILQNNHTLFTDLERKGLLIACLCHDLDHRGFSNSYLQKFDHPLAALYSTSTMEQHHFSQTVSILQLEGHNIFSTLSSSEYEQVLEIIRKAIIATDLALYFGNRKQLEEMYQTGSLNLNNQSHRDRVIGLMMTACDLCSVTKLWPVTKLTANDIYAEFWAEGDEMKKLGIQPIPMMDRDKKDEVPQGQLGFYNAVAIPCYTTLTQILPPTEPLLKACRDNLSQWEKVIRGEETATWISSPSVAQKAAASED

IC50	Structure (SMILES)
0.44 nM	COc1cc(Cl)c(C)n2nc(CCc3nc(N4CCCC4)nn3C)nc12 [Example 76, 6-Chloro-8-methoxy-5-methyl-2-[2-(2-methyl-5-pyrrolidin-1-yl-2H-[1,2,4]triazol-3-yl)-ethyl]-[1,2,4]triazolo[1,5-a]pyridine]
11.9 nM	CCn1nc(N2CCCC2)nc1/C=C/c1nc2c(C)ncc(C)n2n1 [Example 1, 2-[2-(2-Ethyl-5-pyrrolidin-1-yl-2H-[1,2,4]triazol-3-yl)-vinyl]-5,8-dimethyl-[1,2,4]triazolo[1,5-a]pyrazine]
128 nM	Cc1cc(C)n2nc(CCc3nc(N(C)C4CC4)nn3C)nc2n1 [Example 34, Cyclopropyl-{5-[2-(5,7-dimethyl-[1,2,4]triazolo[1,5-a]pyrimidin-2-yl)-ethyl]-1-methyl-1H-[1,2,4]triazol-3-yl}-methyl-amine]
0.72 nM	Cc1c(Cl)cc(C(F)(F)F)c2nc(CCc3nc(N4CCCC4)n[nH]3)nn12 [Example 128, 6-Chloro-5-methyl-2-(2-(3-(pyrrolidin-1-yl)-1H-1,2,4-triazol-5-yl)ethyl)-8-(trifluoromethyl)-[1,2,4]triazolo[1,5-a]pyridine]
122 nM	Cc1ncc(C)n2nc(CCc3nc(N4CC[C@H](F)C4)nn3C)nc12 [Example 94, 2-{2-[5-((S)-3-Fluoro-pyrrolidin-1-yl)-2-methyl-2H-[1,2,4]triazol-3-yl]-ethyl}-5,8-dimethyl-[1,2,4]triazolo[1,5-a]pyrazin]
50.6 nM	CCN(CC)c1nc(CCc2nc3c(C)ncc(C)n3n2)n(C)n1 [Example 59, {5-[2-(5,8-Dimethyl-[1,2,4]triazolo[1,5-a]pyrazin-2-yl)-ethyl]-1-methyl-1H-[1,2,4]triazol-3-yl}-diethyl-amine]
1.45 nM	Cc1cc(C(F)(F)F)c2nc(CCc3nc(N4CCCC4)nn3C)nn2c1C [Example 84, 5,6-Dimethyl-2-(2-(1-methyl-3-(pyrrolidin-1-yl)-1H-1,2,4-triazol-5-yl)ethyl)-8-(trifluoromethyl)-[1,2,4]triazolo[1,5-a]pyridine]
0.55 nM	Cc1c(Cl)cc(OC(F)F)c2nc(CCc3nc(N4CCCC4)n(C)n3)nn12 [Example 106, 6-Chloro-8-difluoromethoxy-5-methyl-2-[2-(1-methyl-5-pyrrolidin-1-yl-1H-[1,2,4]triazol-3-yl)-ethyl]-[1,2,4]triazolo[1,5-c]pyridine]
31.6 nM	Cc1ncc(C)n2nc(CCc3nc(N4CCCCC4)nn3C)nc12 [Example 49, 5,8-Dimethyl-2-[2-(2-methyl-5-piperidin-1-yl-2H-[1,2,4]triazol-3-yl)-ethyl]-[1,2,4]triazolo[1,5-a]pyrazine]
56.6 nM	Cn1nc(N2CCCC2)nc1CCc1nc2cccc(C(F)(F)F)n2n1 [Example 64, 2-(2-(1-Methyl-3-(pyrrolidin-1-yl)-1H-1,2,4-triazol-5-yl)ethyl)-5-(trifluoromethyl)-[1,2,4]triazolo[1,5-a]pyridine]
